Laboratory results taken from US20090208747A1, “Novel Crystalline Methods and Novel Crystalline and Amorphous forms of Halogenated Sugars” (V.B. MEDICARE PVT. LTD, priority 2006, published 2009).
Where two headings read alike, the source gives them in different places.

Key:
[1] = Particle size analysis; settings: for particle size distribution at 90%: 90% of particles below this size
Method: The TGS crystals obtained were tested for purity and particle size.
The solids obtained were tested for purity, particle size and X ray diffraction for the nature of solid obtained.

[2] = Analysis against JECFA specifications: solubility; assay type: physicochemical; settings: in ethyl acetate
[3] = Stability testing as per ICH Guideline Q1A(R2), storage stability; assay type: physicochemical
Source text: Stability testing was done as per ICH Harmonised Tripaertite Guideline Stability Testing of New drug substances and Products Q1A(R2) issued by International Conference on Hamonization of technical requirements for registration of pharmaceuticals for human use and recommended for adoption at Step 4 of the ICH Process on 6 Feb.
Details are given on table nos 1 to 4 given in the following: […]

[4] = Accelerated stability test, sealed containers incubated at 50° C.; assay type: physicochemical; settings: sealed container; for Assay (%) / PH: listed as Crystalline TGS crystallized from butanol:methanol mixture
Method: For extrapolating potential storage stability beyond one year, an accelerated storage stability test was conducted. In this test, crystalline TGS of small and large mean particle size was incubated at 50° C. in sealed containers. Percent assay and pH were tested after each 24 hours for five successive days. […] A three days' stability in accelerated stability test is extrapolated by Catani et al (2005) to 8 years of storage stability at ambient temperature.
All the three samples were taken in sealed containers and were incubated at 50° C. […]

[5] = 25° C. ± 2° C. 60% RH ± 5% RH, 1st month
[6] = 25° C. ± 2° C. 60% RH ± 5% RH, 2nd month
[7] = 25° C. ± 2° C. 60% RH ± 5% RH, 3rd month
[8] = 25° C. ± 2° C. 60% RH ± 5% RH, 4th month
[9] = 25° C. ± 2° C. 60% RH ± 5% RH, 5th month
[10] = 25° C. ± 2° C. 60% RH ± 5% RH, 6th month
[11] = 25° C. ± 2° C. 60% RH ± 5% RH, 12th month
[12] = 25° C. ± 2° C. 60% RH ± 5% RH, 24th month
[13] = 25° C. ± 2° C. 60% RH ± 5% RH, INITIAL
[14] = 30° C. ± 2° C. 65% RH ± 5% RH, 1st month
[15] = 30° C. ± 2° C. 65% RH ± 5% RH, 2nd month
[16] = 30° C. ± 2° C. 65% RH ± 5% RH, 3rd month
[17] = 30° C. ± 2° C. 65% RH ± 5% RH, 4th month
[18] = 30° C. ± 2° C. 65% RH ± 5% RH, 5th month
[19] = 30° C. ± 2° C. 65% RH ± 5% RH, 6th month
[20] = 30° C. ± 2° C. 65% RH ± 5% RH, 12th month
[21] = 30° C. ± 2° C. 65% RH ± 5% RH, 24th month
[22] = 30° C. ± 2° C. 65% RH ± 5% RH, INITIAL
[23] = 40° C. ± 2° C. 75% RH ± 5% RH, 1st month
[24] = 40° C. ± 2° C. 75% RH ± 5% RH, 2nd month
[25] = 40° C. ± 2° C. 75% RH ± 5% RH, 3rd month
[26] = 40° C. ± 2° C. 75% RH ± 5% RH, 4th month
[27] = 40° C. ± 2° C. 75% RH ± 5% RH, 5th month
[28] = 40° C. ± 2° C. 75% RH ± 5% RH, 6th month
[29] = 40° C. ± 2° C. 75% RH ± 5% RH, 12th month
[30] = 40° C. ± 2° C. 75% RH ± 5% RH, 24th month
[31] = 40° C. ± 2° C. 75% RH ± 5% RH, INITIAL

SMILES: OC[C@H]1O[C@H](O[C@]2(CCl)O[C@H](CCl)[C@@H](O)[C@@H]2O)[C@H](O)[C@@H](O)[C@H]1Cl [Crystalline TGS small particle size, 1′-6′-Dichloro-1′-6′-DIDEOXY-β-Fructofuranasyl-4-chloro-4-deoxy-galactopyranoside]
- mean particle size [1]: about 4.2 micron
- particle size distribution at 90% ([1]; listed as Example 2): below 10 microns
- particle size distribution at 90% ([1]; listed as crystallized product): < 10 microns
- mean particle size ([1]; listed as Example 2): 4.2 micron
- Solubility [2]: water. Slightly
- Appearance [3, 5]: Normal
- Assay [3, 5]: 99.02%
- Specific Rotation [3, 5]: +85.99°
- Water content [3, 5]: 0.73%
- Appearance [3, 6]: Normal
- Assay [3, 6]: 99.04%
- Specific Rotation [3, 6]: +84.63°
- Water content [3, 6]: 0.63%
- Appearance [3, 7]: Normal
- Assay [3, 7]: 99.05%
- Specific Rotation [3, 7]: +85.31°
- Water content [3, 7]: 0.22%
- Appearance [3, 8]: Normal
- Specific Rotation [3, 8]: +84.20°
- Water content [3, 8]: 0.41%
- Appearance [3, 9]: Normal
- Assay [3, 9]: 98.42%
- Specific Rotation [3, 9]: +87.22°
- Water content [3, 9]: 0.17%
- Appearance [3, 10]: Normal
- Assay [3, 10]: 99.07%
- Specific Rotation [3, 10]: +86.78°
- Water content [3, 10]: 0.23%
- Appearance [3, 11]: Normal
- Assay [3, 11]: 99.02%
- Specific Rotation [3, 11]: +85.93°
- Water content [3, 11]: 0.33%
- Appearance [3, 12]: Normal
- Assay [3, 12]: 98.78%
- Specific Rotation [3, 12]: +84.63°
- Water content [3, 12]: 0.53%
- Appearance [3, 13]: Normal
- Specific Rotation [3, 13]: +86.07°
- Water content [3, 13]: 0.52%
- Appearance [3, 14]: Normal
- Specific Rotation [3, 14]: +86.01°
- Water content [3, 14]: 0.69%
- Appearance [3, 15]: Normal
- Specific Rotation [3, 15]: +85.11°
- Water content [3, 15]: 0.19%
- Appearance [3, 16]: Normal
- Assay [3, 16]: 100.62%
- Specific Rotation [3, 16]: +86.29°
- Water content [3, 16]: 0.28%
- Appearance [3, 17]: Normal
- Assay [3, 17]: 99.95%
- Specific Rotation [3, 17]: +86.67°
- Water content [3, 17]: 0.24%
- Appearance [3, 18]: Normal
- Assay [3, 18]: 99.88%
- Specific Rotation [3, 18]: +87.58°
- Water content [3, 18]: 0.18%
- Appearance [3, 19]: Normal
- Assay [3, 19]: 99.43%
- Specific Rotation [3, 19]: +84.35°
- Water content [3, 19]: 0.42%
- Appearance [3, 20]: Normal
- Specific Rotation [3, 20]: +85.62°
- Water content [3, 20]: 0.66%
- Appearance [3, 21]: Normal
- Assay [3, 21]: 98.82%
- Specific Rotation [3, 21]: +86.73°
- Water content [3, 21]: 0.70%
- Appearance [3, 22]: Normal
- Specific Rotation [3, 22]: +86.07°
- Water content [3, 22]: 0.52%
- Appearance [3, 23]: Normal
- Assay [3, 23]: 99.06%
- Specific Rotation [3, 23]: +86.01°
- Water content [3, 23]: 0.73%
- Appearance [3, 24]: Normal
- Assay [3, 24]: 99.04%
- Specific Rotation [3, 24]: +86°
- Water content [3, 24]: 1.10%
- Appearance [3, 25]: Normal
- Specific Rotation [3, 25]: +85.16°
- Water content [3, 25]: 0.27%
- Appearance [3, 26]: Normal
- Specific Rotation [3, 26]: +85.81°
- Water content [3, 26]: 0.22%
- Appearance [3, 27]: Normal
- Assay [3, 27]: 98.96%
- Specific Rotation [3, 27]: +85.74°
- Water content [3, 27]: 0.20%
- Appearance [3, 28]: Normal
- Assay [3, 28]: 98.82%
- Specific Rotation [3, 28]: +82.67°
- Water content [3, 28]: 0.49%
- Appearance [3, 29]: Normal
- Assay [3, 29]: 98.75%
- Specific Rotation [3, 29]: +86.01°
- Water content [3, 29]: 0.73%
- Appearance [3, 30]: Normal
- Assay [3, 30]: 98.52%
- Specific Rotation [3, 30]: +86°
- Water content [3, 30]: 1.10%
- Appearance [3, 31]: Normal
- Specific Rotation [3, 31]: +86.07°
- Water content [3, 31]: 0.52%
- stability in storage ([3]; storage, listed as crystalline TGS of this invention): stable in storage for one year
- Assay (%) ([4]; First day): 99.2%
- PH ([4]; First day): 7.90
- Assay (%) ([4]; Fourth day): 99.12%
- PH ([4]; Fourth day): 7.62
- percent assay as well as pH ([4]; over the test period): stable
